Reference: patent US6106864A, “Pharmaceutical formulations containing darifenacin” (Pfizer Inc., priority 1995, dated 2000)

Tested on: muscarinic M3 receptors over M1 receptors
Assay: Selectivity for muscarinic M3 receptors over M1 receptors
Conditions: metabolite compared with darifenacin; "It appears"

NC(=O)C(c1ccccc1)(c1ccccc1)[C@@H]1CCN(CCc2ccc3c(c2)C(O)CO3)C1 (stereo partly shown) [metabolite]
less selective for muscarinic M3 receptors over M1 receptors in comparison with darifenacin: 6 fold
